According to US9975906B2, “Tricyclic heterocycle derivatives having HIV replication inhibitory effect” (Shionogi & Co., Ltd., priority 2014, dated 2018):
≈ marks a conversion by molar mass, not a printed value. Read-outs that look alike come from different tables or passages of the source.

How the values were obtained:
CYP1A2 = target: T1, CYP1A2 (Homo sapiens, UniProt P05177); assay: CYP Inhibition Assay (7-ethoxyresorufin O-deethylation); type: in vitro ADME; settings: pooled human hepatic microsome, 0.5 μmol/L ethoxyresorufin, 15 minutes, 37° C.
T1 construct: enzyme, pooled human hepatic microsome 0.2 mg protein/mL; from tissue
T1 sequence (P05177 1-516): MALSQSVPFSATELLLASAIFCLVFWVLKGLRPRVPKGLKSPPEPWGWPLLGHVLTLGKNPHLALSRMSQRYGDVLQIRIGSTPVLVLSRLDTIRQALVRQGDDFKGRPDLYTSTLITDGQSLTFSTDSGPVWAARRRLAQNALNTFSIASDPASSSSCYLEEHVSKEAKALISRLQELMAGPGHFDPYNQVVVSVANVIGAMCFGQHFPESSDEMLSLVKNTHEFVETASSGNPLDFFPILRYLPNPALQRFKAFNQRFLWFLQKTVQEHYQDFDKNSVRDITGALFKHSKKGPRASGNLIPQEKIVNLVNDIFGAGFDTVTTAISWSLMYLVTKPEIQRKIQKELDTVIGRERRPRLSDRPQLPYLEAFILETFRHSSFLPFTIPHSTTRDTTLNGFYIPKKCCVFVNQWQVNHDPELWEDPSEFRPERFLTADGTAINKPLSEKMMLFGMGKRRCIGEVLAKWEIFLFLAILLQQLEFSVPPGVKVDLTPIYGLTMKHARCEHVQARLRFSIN
Method: (§1) Using commercially available pooled human hepatic microsome, and employing, as markers, 7-ethoxyresorufin O-deethylation (CYP1A2), tolbutamide methyl-hydroxylation (CYP2C9), mephenytoin 4'-hydroxylation (CYP2C19), dextromethorphan O-demethylation (CYP2D6), and terfenadine hydroxylation (CYP3A4) as typical substrate metabolism reactions of human main five CYP enzyme forms (CYP1A2, 2C9, 2C19, 2D6, 3A4) an inhibitory degree of each metabolite production amount by a test compound was assessed. […] After the centrifugation at 3000 rpm for 15 minutes, resorufin (CYP1A2 metabolite) in the supernatant was quantified by a fluorescent multilabel counter and tolbutamide hydroxide (CYP2C9 metabolite), mephenytoin 4' hydroxide (CYP2C19 metabolite), dextrorphan (CYP2D6 metabolite), and terfenadine alcohol (CYP3A4 metabolite) were quantified by LC/MS/MS. A reaction system containing only DMSO which is a solvent for dissolving a drug was adopted as a control (100%), and the remaining activity (%) was calculated, then IC50 was calculated by reverse presumption with a logistic model using a concentration and an inhibition rate.

CYP2C9 = target: T2, CYP2C9 (Homo sapiens, UniProt P11712); assay: CYP Inhibition Assay (tolbutamide methyl-hydroxylation); type: in vitro ADME; settings: pooled human hepatic microsome, 100 μmol/L tolbutamide, 15 minutes, 37° C.
T2 construct: enzyme, pooled human hepatic microsome 0.2 mg protein/mL; from tissue
Method: as §1

CYP2C19 = target: T3, CYP2C19 (Homo sapiens, UniProt P33261); assay: CYP Inhibition Assay (mephenytoin 4'-hydroxylation); type: in vitro ADME; settings: pooled human hepatic microsome, 50 μmol/L S-mephenytoin, 15 minutes, 37° C.
T3 construct: enzyme, pooled human hepatic microsome 0.2 mg protein/mL; from tissue
Method: as §1

CYP2D6 = target: T4, CYP2D6 (Homo sapiens, UniProt P10635); assay: CYP Inhibition Assay (dextromethorphan O-demethylation); type: in vitro ADME; settings: pooled human hepatic microsome, 5 μmol/L dextromethorphan, 15 minutes, 37° C.
T4 construct: enzyme, pooled human hepatic microsome 0.2 mg protein/mL; from tissue
Method: as §1

CYP3A4 = target: T5, CYP3A4 (Homo sapiens, UniProt P08684); assay: CYP Inhibition Assay (terfenadine hydroxylation); type: in vitro ADME; settings: pooled human hepatic microsome, 1 μmol/L terfenedine, 15 minutes, 37° C.
T5 construct: enzyme, pooled human hepatic microsome 0.2 mg protein/mL; from tissue
Method: as §1

[1] = Metabolism Stability Test; type: in vitro ADME; settings: compound concentration 0.5 μmol/L, human liver microsomes, NADPH, 37° C., 30 minutes
Method: Commercially available pooled human hepatic microsomes and a test compound were reacted for a constant time, then a remaining rate was calculated by comparing a reacted sample and an unreacted sample, thereby a degree of metabolism of the test compound in liver was assessed. A reaction was performed (oxidative reaction) at 37° C. for 0 minute or 30 minutes in the presence of 1 mmol/L NADPH in 0.2 mL of a buffer (50 mmol/L Tris-HCl, pH 7.4, 150 mmol/L potassium chloride, 10 mmol/L magnesium chloride) containing 0.5 mg protein/mL of human liver microsomes. After the reaction, 50 μL of the reaction solution was added to 100 μL of a methanol/acetonitrile=1/1 (v/v), mixed and centrifuged at 3000 rpm for 15 minutes. The test compound in the supernatant was quantified by LC/MS/MS, and a remaining amount of the test compound after the reaction wad calculated, letting a compound amount at 0 minute reaction time to be 100%. Hydrolysis reaction was performed in the absence of NADPH and glucuronidation reaction was in the presence of 5 mM UDP-glucuronic acid in place of NADPH, followed by similar operations. (Result) The residual rate of the compound concentration 0.5 μmol/L in the oxidation reaction was shown below.

Powder Solubility Test = type: physicochemical; settings: thermodynamic from solid, shaken 1 hour at 37° C.
Method: Appropriate amounts of the test substances are put into appropriate containers. To the respective containers are added 200 μL of JP-1 fluid (sodium chloride 2.0 g, hydrochloric acid 7.0 mL and water to reach 1000 mL), 200 μL of JP-2 fluid (phosphate buffer (pH 6.8) 500 mL and water 500 mL), and 200 μL of 20 mmol/L TCA (sodium taurocholate)/JP-2 fluid (TCA 1.08 g and JP-2 fluid to reach […]). IN the case that all amount of the test compound is dissolved after the addition of the test fluid, the test compound is added as appropriate. The containers are sealed, and shaken for 1 hour at 37° C. The mixtures are filtered, and 100 μL of methanol is added to each of he filtrate […] so that the filtrates are two-fold diluted. The dilution ratio may be changed if necessary. The dilutions are observed for bubbles and precipitates, and then the containers are sealed and shaken. Quantification is performed by HPLC with an absolute calibration method.

T5 sequence (P08684 whole entry): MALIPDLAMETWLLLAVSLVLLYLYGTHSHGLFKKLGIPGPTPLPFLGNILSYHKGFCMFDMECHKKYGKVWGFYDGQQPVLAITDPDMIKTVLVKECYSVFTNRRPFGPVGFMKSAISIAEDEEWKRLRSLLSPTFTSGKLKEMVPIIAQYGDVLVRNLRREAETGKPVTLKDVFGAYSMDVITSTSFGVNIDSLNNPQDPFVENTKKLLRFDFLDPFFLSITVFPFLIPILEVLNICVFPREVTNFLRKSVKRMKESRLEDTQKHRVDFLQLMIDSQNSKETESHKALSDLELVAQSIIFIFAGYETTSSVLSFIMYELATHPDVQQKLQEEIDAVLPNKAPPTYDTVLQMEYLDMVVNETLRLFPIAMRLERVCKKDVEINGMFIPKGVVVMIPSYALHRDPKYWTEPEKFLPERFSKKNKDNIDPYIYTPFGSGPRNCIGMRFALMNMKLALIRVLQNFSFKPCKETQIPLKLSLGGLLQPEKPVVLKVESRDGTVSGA
T3 sequence (P33261 whole entry): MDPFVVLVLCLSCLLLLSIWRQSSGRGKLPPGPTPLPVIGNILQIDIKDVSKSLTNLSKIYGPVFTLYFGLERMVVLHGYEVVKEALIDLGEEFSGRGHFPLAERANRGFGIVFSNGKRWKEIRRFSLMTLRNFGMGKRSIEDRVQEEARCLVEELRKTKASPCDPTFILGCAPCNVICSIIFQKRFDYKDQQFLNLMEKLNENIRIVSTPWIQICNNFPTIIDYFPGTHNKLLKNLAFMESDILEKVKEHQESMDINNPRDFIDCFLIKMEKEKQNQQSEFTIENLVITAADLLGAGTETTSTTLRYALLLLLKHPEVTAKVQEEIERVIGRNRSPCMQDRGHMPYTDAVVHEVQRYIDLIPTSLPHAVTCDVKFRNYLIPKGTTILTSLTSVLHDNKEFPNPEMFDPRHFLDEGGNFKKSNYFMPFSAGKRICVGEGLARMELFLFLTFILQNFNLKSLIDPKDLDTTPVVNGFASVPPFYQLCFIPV
T4 sequence (P10635 whole entry): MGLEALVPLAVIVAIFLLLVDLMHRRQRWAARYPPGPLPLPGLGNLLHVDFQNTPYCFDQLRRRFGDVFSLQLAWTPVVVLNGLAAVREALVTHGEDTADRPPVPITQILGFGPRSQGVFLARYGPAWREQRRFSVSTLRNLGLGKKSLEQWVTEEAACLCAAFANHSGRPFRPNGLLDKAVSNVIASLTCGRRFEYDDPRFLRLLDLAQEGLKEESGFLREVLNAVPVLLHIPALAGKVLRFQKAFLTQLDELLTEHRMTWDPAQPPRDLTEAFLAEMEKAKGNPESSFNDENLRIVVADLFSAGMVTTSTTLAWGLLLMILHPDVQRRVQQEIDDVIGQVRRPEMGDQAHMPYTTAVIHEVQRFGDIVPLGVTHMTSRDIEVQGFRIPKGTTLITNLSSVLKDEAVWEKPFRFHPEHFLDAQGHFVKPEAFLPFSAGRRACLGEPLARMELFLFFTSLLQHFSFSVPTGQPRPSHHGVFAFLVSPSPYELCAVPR
T2 sequence (P11712 whole entry): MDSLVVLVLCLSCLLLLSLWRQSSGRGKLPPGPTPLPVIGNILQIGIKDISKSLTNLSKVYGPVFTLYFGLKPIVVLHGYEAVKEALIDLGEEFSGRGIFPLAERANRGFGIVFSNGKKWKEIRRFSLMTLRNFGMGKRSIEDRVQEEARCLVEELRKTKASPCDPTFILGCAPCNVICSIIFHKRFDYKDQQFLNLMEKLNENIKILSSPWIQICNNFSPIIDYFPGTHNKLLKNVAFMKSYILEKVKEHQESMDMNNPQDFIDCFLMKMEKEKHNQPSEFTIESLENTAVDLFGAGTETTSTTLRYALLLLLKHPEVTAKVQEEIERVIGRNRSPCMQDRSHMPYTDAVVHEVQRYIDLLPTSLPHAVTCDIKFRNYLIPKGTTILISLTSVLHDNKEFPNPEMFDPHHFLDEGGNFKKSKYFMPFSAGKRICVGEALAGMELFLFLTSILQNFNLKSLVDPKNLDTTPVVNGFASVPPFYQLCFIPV

IC50 (CYP1A2): > 20 µM
IC50 (CYP2C9): > 20 µM
IC50 (CYP2C19): > 20 µM
IC50 (CYP2D6): > 20 µM
IC50 (CYP3A4): > 20 µM
residual rate in the oxidation reaction [1]: > 99.9%
solubility at 1 h (Powder Solubility Test; aqueous buffer, JP-2 fluid (phosphate buffer pH 6.8), read-out: powder solubility, JP-2 fluid): 0.603 µg/mL (≈ 0.899 µM)
solubility at 1 h (Powder Solubility Test; pH 1.2, simulated gastric fluid, JP-1 fluid, read-out: powder solubility, JP-1 fluid): > 1000 µg/mL
solubility at 1 h (Powder Solubility Test; pH 6.8, fassgf or other biorelevant, 20 mmol/L TCA (sodium taurocholate)/JP-2 fluid, read-out: powder solubility, 20 mmol/L TCA/JP-2 fluid): > 1000 µg/mL
SMILES: Cc1ccc(-c2c([C@H](OC(C)(C)C)C(=O)O)c(C)c3c4c2cc(-c2ccnc(-c5ccc6c(cnn6C)c5)c2)n4CCN3CCN(C)C)cc1 [Compound I-034]
